Experimental data published in patent US7115574B2, “System and method for support legacy operating system booting in a legacy-free system” (priority 2001, dated 2006).

Legend:
C. albicans = C. albicans colony forming units (candidacidal activity); type: cell-based; settings: for C. albicans colony forming units (CFU): FIG. 1, incubation 2 hours at 37° C.; for relative potency in reducing C. albicans viability: FIG. 2, 10^−4M melanocortin peptides
Procedure: C. albicans (clinical isolate) was obtained from the collection of the Department of Microbiology, Ospedale Maggiore di Milano and maintained on Sabouraud's agar slants and periodically transferred to Sabouraud's agar plates and incubated for 48 hours at 28° C. To prepare a stationary growth phase yeast, a colony was taken from the agar plate and transferred into 30 ml Sabouraud-dextrose broth and incubated for 72 hours at 32° C. Cells were centrifuged and suspended in Hank's balanced salt solution (“HBSS”) to the desired concentration. Viability, determined by the exclusion of 0.01% methylene blue, remained >98%.
C. albicans (1×10^6/ml in HBSS) was incubated in the presence or absence or α-MSH(1-13) (SEQ ID NO: 3) or (11-13) (SEQ ID NO: 1) at concentrations in the range of 10^−15 M to 10^−6 M for 2 hours at 37° C. Cells were then washed in cold distilled water and diluted with HBSS to a concentration of 100 organisms/ml. One-ml aliquots were dispensed on blood agar plates and incubated for 48 hours at 37° C. Organism viability was estimated from the number of colonies formed.
In subsequent experiments using familiar procedures we compared activity of α-MSH(4-10) (SEQ ID NO: 10), (6-13) (SEQ ID NO: 2), (11-13) (SEQ ID NO: 1), ACTH(1-39) (SEQ ID NO: 9), (18-39) (SEQ ID NO: 11) and fluconazole, the latter an established antifungal agent. Melanocortin peptides and fluconazole were tested in concentrations of 10^−6 M to 10^−4 M. There were at least six replicates for each concentration of peptide. […]

[1] = system: C. albicans killing by human neutrophils; assay: C. albicans killing by human neutrophils; type: cell-based; settings: 10^−12M to 10^−4M; 2 hours at 37° C.; p<0.01
Procedure: Venous blood (20 ml) from health volunteers was anticoagulated with heparin. Neutrophils were isolated using dextran sedimentation and Ficoll-Hypaque (Sigma Chemical Co., St. Louis, […]., USA) centrifugation. Erythrocytes were lysed via hypotonic shock. Neutrophils represented at least 97% of the cell suspension. Cell viability, estimated by trypan blue exclusion, was >98%. Neutrophils were suspended to a final concentration in HBSS.
C. albicans (1×10^6) were opsonized with human AB serum in a shaking water bath for 30 minutes at 37° C. […] After incubation, the culture tubes were placed on ice to stop growth and extracellular organisms were washed twice with centrifugation at 1000×g at 4° C. A 2.5% sodium desoxycholoate solution was added to obtain a suspension of 10^6 cells/ml. Two 1/100 serial dilutions in HBSS were made to obtain a final suspension of 100 cells/ml. Aliquots of 1 ml were dispensed on blood agar plates and incubated for 48 hours at 37° C. Colony forming units (CFUs) were counted at the end of the incubation period. Experiments were run in triplicate and repeated using blood from 5 different donors.

[2] = system: inflammation induced in the hind paw by kappa carrageenan; assay: Kappa carrageenan hind paw inflammation in spinal cord intact and transected mice; type: in vivo, BALB/c mice; settings: for inhibition of inflammation induced in the hind paw: central administration, spinal cord intact mice; for effect on carrageenan-induced paw swelling: spinal cord transected mice
Procedure: Because surgical dissection of trigeminal structures that innervate the ear of the mouse is very difficult, tests to learn whether descending neural pathways are essential to the anti-inflammatory activity of centrally administered α-MSH peptides were performed in mice with inflammation induced in a hind paw. In these experiments, each animal was anesthetized with pentobarbital sodium solution as above. Baseline foot pad thickness of both hind paws was measured with a spring-loaded micrometer (Swiss Precision Instruments, Los Angeles, Calif.). Paw thickness was expressed in units of 10^−3 cm; average thickness of unstimulated paws was 171.5×10^−3 cm across shipments of animals. Kappa carrageenan (Sigma) dissolved in saline (0.05%, 20 μl) was injected (28 gauge allergy test syringe) into one footpad, and saline (20 μl) was injected into the other. For the analyses, the increase in thickness of the control saline-injected paw of each animal was subtracted from that of the carrageenan-injected paw, to eliminate the influence of mechanical injury and volume of the injected fluid. […] Treatment with the locally acting steroid reduced swelling up to 29% (average, relative to saline controls) at 4.5 hr. after carrageenan.
However, a standardized crushing of lumbar vertebrae with a hemostat (Kelly) was effective in severing the cord; no deaths were caused by this treatment. […] The experiments were limited to 4.5 hr to reduce problems of bowel and bladder dysfunction. Immediately after the 4.5 hr measurements all mice were killed with an overdose of sodium pentobarbital.
Because of the size of the experiments and the requirement for several shipments of animals over time, several experiments were performed, each with complete treatment and control groups drawn from the same shipment of mice. Omnibus analysis of variance techniques (Dynastat, Washington, D.C.) were used to test overall differences among group means. Tukey's protected t test was used to compare individual means. Probability values of <0.05 were considered significant.

[3] = system: N9 clone of murine microglial cells; assay: cAMP accumulation in N9 microglia; type: cell-based; settings: for cAMP accumulation: resting cells and cells co-incubated with LPS+IFN-γ; for concentration of strongest effect on cAMP accumulation: resting microglia, 1, 10, 50 μM tested
Procedure: cAMP accumulation in N9 cells was measured as previously described. […] Reactions were stopped after 3 min by aspirating supernatants, immediately adding 1 mL ethanol at −20° C. and freezing. cAMP content in the ethanol-soluble fraction was measured using an enzyme immunoassay kit (Amersham).

[4] = system: N9 clone of murine microglial cells; assay: Northern blot of TNF-α and iNOS mRNA in activated microglia; type: cell-based; settings: peptide prior to LPS and IFN-γ
Procedure: Total cellular RNA was extracted from 10^6 adherent microglial cells plated in six-well tissue culture plates (Corning). Electrophoresis of RNA samples (10 μg/lane) was performed in 1% agarose/2.2 M formaldehyde gels and the gels subsequently blotted onto nylon filters by capillary action and baked for 2 h before prehybridization. The cDNA fragments encoding murine TNF-α and mouse macrophage iNOS were ^32P-labeled using the Ready-To-Go DNA Labeling Kit (Pharmacia, Uppsala, Sweden) before hybridization of nylon filters and autoradiography. Blots were subsequently rehybridized with human glyceraldehyde-3-phosphate dehydrogenase (G-3-PDH) cDNA probe as an internal control (Clontech Laboratories, Inc., Palo Alto, Calif.).

Substance | C. albicans colony forming units (CFU) (C. albicans) | relative potency in reducing C. albicans viability (C. albicans) | killing of C. albicans by human neutrophils [1] | inhibition of inflammation induced in the hind paw ([2]; 3 hr) [%] | inhibition of inflammation induced in the hind paw ([2]; 4.5 hr) [%] | effect on carrageenan-induced paw swelling ([2]; centrally injected) | effect on carrageenan-induced paw swelling ([2]; given intraperitoneally) | cAMP accumulation in conjunction with LPS and IFN-γ ([3]; peptide 10 μM with LPS+IFN-γ, forskolin 100 μM as comparison) | cAMP accumulation [3] | concentration of strongest effect on cAMP accumulation [3] [µM] | transcription levels (mRNA) for TNF-α and iNOS [4] | effect on carrageenan-induced paw swelling ([2]; given intraperitoneally, listed as tripeptide)
SYSMEHFRWGKPV [α-MSH(1-13)] | greatly reduced | most effective | enhanced the killing | 57 | 29 | had no effect on paw swelling | significant, although smaller, inhibitory effect | more effective of the two | increased cAMP accumulation | 10 | decrease in transcription levels | –
Ac-Lys-Pro-Val-NH2 [α-MSH(11-13)] | greatly reduced | most effective | enhanced the killing | – | – | – | even more effective at reducing swelling | – | increased cAMP accumulation | 50 | decrease in transcription levels | marked inhibitory effect on inflammation
